Results on 6 molecules are retold here after patent publication US8003595B2, “Amino acid sequences facilitating penetration of a substance of interest into cells and/or cell nuclei” (Cellectis, priority 2000, dated 2011).

Data set [1] concerns HH9 tumors. As to the kind of experiment: In vivo anti-tumor activity of peptide-doxorubicin conjugates. Particulars: day 60, total of 120 μg of doxorubicin or the equivalent, peritumoral injection. Also on record: species or system nude mice. The protocol:
Nude mice are injected with 3×10^6 HH9 cells subcutaneously in the side. On day 19 after the cell implant, the tumors are measured, and 4 groups of 6 mice are formed that receive by peritumoral injection either NaCl, or natural doxorubicin, or 1047-doxorubicin, or HBP1-doxorubicin conjugates at the rate of 30 μg of doxorubicin or the equivalent of conjugates every two weeks. The tumors are measured and their volume calculated.

A further data set deals with B16.F10. As to the kind of experiment: Growth inhibition by peptide-doxorubicin conjugates (MTT, 48 hours). The settings on record: Mus musculus, read-out: molar concentration giving 50% inhibition of the growth of the cells. It is filed as cell-based, murine. As for the experimental part:
(§1) To evaluate the biological activity of peptide-doxorubicin conjugates, the inhibition of the growth of tumor cells in culture is measured.
(§2) The cells are sown the night before in 96-well plates at the rate of 10^3 cells per well.

Another data set has as its system H1299. The data set is described as above. It is filed as cell-based. The settings on record: Homo sapiens, NCI-H1299, read-out: molar concentration giving 50% inhibition of the growth of the cells. As for the experimental part:
as §1, §2

The subject of another data set is HH9. The description is as above. Particulars: Homo sapiens, read-out: molar concentration giving 50% inhibition of the growth of the cells. It is filed as cell-based. The protocol: as §1, §2
The next data set has as its system MCF7R. The description is as above. The settings on record: Homo sapiens, read-out: molar concentration giving 50% inhibition of the growth of the cells, resistant to doxorubicin. It is filed as cell-based. The protocol:
as §1, §2
(§3) It appears that, in vitro, the sensitivity of the cells to the peptide-doxorubicin conjugates is on the same order of magnitude as that of natural doxorubicin. The lines resistant to doxorubicin (K562R and MCF7R) require a greater concentration of doxorubicin.

A further data set relates to K562 R. The description is as above. It is filed as cell-based. Particulars: Homo sapiens, K-562R, read-out: molar concentration giving 50% inhibition of the growth of the cells, resistant to doxorubicin. The protocol: as §1, §2, §3
Data set [2] is described as follows: In vivo toxicity of peptide-doxorubicin conjugates (weight loss). The settings on record: for Weight loss: relative to mice that received NaCl; for Weight of the mice: intravenous, peptide-doxorubicin conjugates.
Method: (§9) Injection of doxorubicin or doxorubicin-peptide by the intravenous route makes it possible to compare the toxicity of the different preparations. The estimate is made by the weight loss of the mice (5 mice per group). Two experiments were done: • Experiment 1: The mice received 200 μg per injection at 3-day intervals, or 600 μg of doxorubicin or the equivalent peptide-doxorubicin in all. The mice were weighed the day after the last injection. • Experiment 2: The mice received 2 injections of 200 -μg of doxorubicin or the peptide-doxorubicin equivalent at one week intervals, or 400 μg in all, and were weighed the day after the last injection.
(§10) The average weight loss is calculated in relation to the average weight of the mice that received NaCl.
The subject of the next data set is 3T3. The experiment in a line: Internalization of covalent peptide-peroxidase conjugates. It is filed as cell-based, mouse. Particulars: Table 9, 0.2 μg/ml conjugate, 2 hours. The protocol:
(§4) To evaluate more directly the penetration of the peptides, avoiding the avidin-peroxidase bias, some of the peptides in sequences SEQ ID NO: 25 to 48 were conjugated covalently with cysteine in the C-terminal position of the peptide to peroxidase. The peptides were coupled with peroxidase in the following way:
(§5) One mg of peroxidase activated with maleimide (Sigma) in 100 μl of sodium phosphate buffer, NaCl 0.15 M, EDTA 5 mM, had 1 mg of peptide added to it. After 2 hours at laboratory temperature, β-mercaptoethanol is added to a final concentration of 1.5 mM for 15 minutes. The uncoupled peptide is eliminated by centrifugation on ultrafiltration membranes (cut-off threshold=30,000 Daltons, Sartorius), followed by three washings in sodium phosphate buffer 0.1 M, pH 7.4 containing 0.15 M NaCl.
(§6) It appears that the higher the concentration of peptide-peroxidase conjugate in the culture medium, the more the quantity internalized increases. To compare the penetration of the conjugates by cell type, the cells from different lines were incubated with 0.2 μg/ml of peptide-peroxidase conjugate for 2 hours, and the quantity of peroxidase dosed in the lysates. Table 9 and Table 9B below give the results expressed in pg/10^3 cells. The quantity of each peptide internalized in the different lines generally varies only from single to double.

In data set [3] the test system is H1299 cells. As to the kind of experiment: Internalization of biotinylated peptide/S-PO complexes. It is filed as cell-based, human. Particulars: peptide: S-PO complexes of 4:1, peptide concentration of 1 μg. The procedure, abridged:
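Biotinylated peptides precomplexed 15 min with streptavidin- or avidin-peroxidase at 25:1 or 4:1 peptide:conjugate molar ratio in PBS, diluted in complete medium and incubated with H1299 cells for 4 h. After washing and lysis, internalised peroxidase quantified with ortho-dianisidine/H2O2 at 450 nm against an S-PO standard curve, as pg per 10^4 cells.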

Data set [4] concerns HeLa cells. As to the kind of experiment: Heparin inhibition of internalization of peptide-peroxidase conjugates. The data set is classed as cell-based, human. As for the experimental part:
(§7) a) Heparin (50 μg/ml) was incubated with the cells for 1 hour before adding the peptide-peroxidase conjugates at 0.2 μg/ml for 2 hours. The cells were then lysed and the peroxidase dosed.
(§8) The quantity of heparin necessary to inhibit 50% penetration of the peptides coupled to peroxidase was evaluated with these two types of cells, by incubating the cells with the peptide-peroxidase conjugates with increasing concentrations of heparin. The results of inhibiting internalization of the peptides are expressed as the heparin concentration (μg/ml) in Table 2 below.

The subject of the next data set is 3T3 cells. The description is as above. The data set is classed as cell-based, mouse. As for the experimental part: as §7, §8
Data set [5] is described as follows: ELISA fixation of biotinylated peptides on sensitized plates. The data set is classed as binding. Particulars: read-out: avidity (Kd), quantity of peptides necessary to obtain 50% fixation, Chondroitin A; Table 5. (In an ELISA, binding on a coated surface is turned into a signal by an enzyme label.)
Assay in data set [6]: as above
The data set is classed as binding. The settings on record: read-out: avidity (Kd), quantity of peptides necessary to obtain 50% fixation, Heparin; Table 5. As for the experimental part:
The capacity of peptides SEQ ID NO: 1 to 21 to attach themselves to DNA and heparin is evaluated on ELISA plates sensitized with DNA or heparin. Dilutions of biotinylated peptides are deposited on the plates and their fixation is shown using streptavidin conjugated with peroxidase. […] The avidity of each of the peptides for DNA or heparin is evaluated by the quantity (×10^−6 M) of peptides necessary to obtain 50% fixation.

Data set [7] has as its system H1299 cells. As to the kind of experiment: Internalization of covalent peptide-peroxidase conjugates. It is filed as cell-based, human. The settings on record: Table 9; H1299; 0.2 μg/ml conjugate, 2 hours. The procedure, abridged:
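Peptides coupled via C-terminal cysteine to maleimide-activated peroxidase; uncoupled peptide removed by ultrafiltration. H1299 cells incubated 2 h with increasing conjugate concentrations, washed, lysed; internalized peptide quantified from lysate peroxidase against a conjugate standard curve, as pg/10^3 cells.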

Data set [8] in a line: ELISA fixation of biotinylated peptides on sensitized plates. It is filed as binding. The settings on record: read-out: avidity (Kd), quantity of peptides necessary to obtain 50% fixation, Chondroitin C; Table 5.
Another data set has as its system HeLa. As to the kind of experiment: Internalization of covalent peptide-peroxidase conjugates. The data set is classed as cell-based, human. Particulars: Table 9, 0.2 μg/ml conjugate, 2 hours. The protocol: as §4, §5, §6
The nature of data set [9]: ELISA fixation of biotinylated peptides on sensitized plates. The data set is classed as binding. The settings on record: read-out: avidity (Kd), quantity of peptides necessary to obtain 50% fixation, Chondroitin B; Table 5.
The test system of data set [10] is Enterococcus faecalis (ATCC 29212). The experiment in a line: microbe, parasite or virus in culture. The data set is classed as cell-based. The settings on record: ATCC 29212.
Data set [11] concerns Pseudomonas aeruginosa (ATCC 27853). The experiment in a line: microbe, parasite or virus in culture. The data set is classed as cell-based. The settings on record: ATCC 27853.
Data set [12] concerns Staphylococcus aureus (ATCC 25923). As to the kind of experiment: microbe, parasite or virus in culture. The data set is classed as cell-based. The settings on record: ATCC 25923.
Data set [13] deals with Escherichia coli (ATCC 25922). The experiment in a line: microbe, parasite or virus in culture. It is filed as cell-based. Particulars: ATCC 25922; read-out: MBC.
For data set [14] the following is noted: mouse, in vivo, iv.
Method: as §9, §10
Data set [15] has as its system Salmonella typhimurim (clinical isolate). The experiment in a line: Antibacterial activity of cationic peptides (MBC). The data set is classed as cell-based. The settings on record: S. typhimurium. As for the experimental part: The gram-positive bacterial strains are: Enterococcus faecalis (ATCC 29212), and Staphylococcus aureus (ATCC 25923) and the gram-negative strains are: Escherichia coli (ATCC 25922), Pseudomonas aeruginosa (ATCC 27853) and Salmonella typhimurim (clinical isolate), Salmonella typhiTy2 (WHO). The bacteria are cultured with shaking all night at 37° C., then recultured at a dilution of 1:50 in some fresh Luria-Bertani (LB) medium for 2 hours. The bacterial concentration is adjusted to […], and 50 μl is distributed in 96-well plates with an equal volume of peptides diluted half and half (256-0.5 μg/ml) in LB medium. […] To determine the minimum bactericide concentration, 10 μl from each well is spread on gelose plates in LB medium.
The results are expressed as the peptide concentration in MBC (μM).

The test system of data set [16] is Salmonella typhiTy2 (WHO). The experiment in a line: microbe, parasite or virus in culture. It is filed as cell-based, S. typhi-Ty2. Particulars: S. typhi-Ty2.
The test system of data set [17] is Escherischia coli (ATCC25922). As to the kind of experiment: Activity of lysozyme coupled to peptides (MBC). It is filed as cell-based, Escherichia coli. Particulars: E. coli. As for the experimental part:
The […] bacterial strain Escherischia coli (ATCC25922) is cultured until the semi-logarithmic phase in Luria-Bertani (LB) medium. The bacteria are collected by centrifugation and resuspended in 1% bacto-peptone medium at a concentration of 5×10^5 cfu/ml (colony forming unit/ml). Lysozyme or the peptide-lysozyme conjugates are diluted half and half (256 to 0.5 μg/ml) in bacto-peptone medium, and 50 μl is distributed in 96-well plates. 50 μl of the bacterial dilution is then added to each well. After 16 hours of incubation at 37° C., 10 μl from each well is smeared on gelose plates in LB medium.
Table 28 reports the inhibition of the growth of E. coli (MBC μg/ml).

Data set [18] relates to HH9 tumors. Also on record: species or system nude mice. The settings on record: mouse, in vivo. The protocol:
The nude mice received subcutaneous transplants of HH9 tumor cells as described above. On day 9 after the transplant, the mice received twice a week, by peritumoral injection, 100 μg of RNase, or 65 μg of peptide (HBP3)2 or 65 μg of peptide (HBP3)2+100 μg of RNase, or 100 μg of peptide conjugate (HBP3)2-RNase or HBP6-RNase conjugate. On day 26, the mice were killed and their tumors weighed.

For data set [19], the system named is HeLa cells. The experiment in a line: Penetration of RNase A transported by peptide-F(ab′)2 anti-RNase transporter. It is filed as cell-based, human.
Method: Two mg of antibody F(ab′)2 anti-RNase in 1 ml of potassium phosphate buffer 0.1 M pH 7.4 are added to 110 μg of SMCC [succinimidyl 4-(N-maleimidomethyl)cyclohexane-1-carboxylate] in 11 μl of dimethylsulfoxide. The solution is incubated for 45 minutes at laboratory temperature. The excess reagent is eliminated by centrifugation on ultrafiltration membranes (cutoff threshold=10,000 Da, Vivascience), followed by three washings in sodium phosphate buffer 10 mM, pH 7 containing 01.5 M of NaCl and 5 mM of EDTA. The coupling with the peptide is then done in a molar ratio of 6 peptides to 1 F(ab′)2 in the sodium phosphate buffer 10 mM, pH 7, containing 0.5 M of NaCl and 5 mM of EDTA for three hours at laboratory temperature. Then, the excess uncoupled peptide is totally eliminated by centrifugation on ultrafiltration membranes, as in the preceding step. These transporters [anti-RNase peptide-F(ab′)2)] are added to ribonuclease A in some complete culture medium, and the solution is incubated for 1 hour at laboratory temperature. The molar ratio of this reaction is 2 RNase/1 F(ab′)2. […]
To measure the quantity of RNase A internalized, the cells are trypsinized, transferred into microtubes and counted. […]

Like-named read-outs stand apart in the source and are kept apart here. Marks after values point to notes of the source that are not given here. Where no end group is shown, it is not given here.

Method for HH9 cells: The cells are sown at night on plates with 96 wells, at the rate of 10^3 cells per well.
The next day, the supernatant is suctioned off and replaced with 100 μl of medium containing succession dilutions of RNase A-vector or natural RNase A and the culture continued for 72 hours.
The wells are then filled with 50 μl of a solution of MTT (3-(4,5-dimethylthiazol-2-yl)-2,5-diphenyl tetrazolium bromide) at 1 mg/ml in the culture medium and cultivated for 4 hours.
The supernatant is removed, and 100 μl of dimethylsulfoxide is added to the wells. After the crystals dissolve, the coloration is read at 550 nm.
The results are calculated as a percentage of the average optic density obtained in the wells of cells containing the dilutions of the samples being tested and the optical density of the wells that received only medium.
The different peptide-RNase conjugates were tested on varied cell lines.

Turning to `COc1cccc2c1C(=O)c1c(O)c3c(c(O)c1C2=O)C[C@@](O)(C(=O)CO)C[C@@H]3O[C@H]1C[C@H](N)[C@H](O)[C@H](C)O1` [Doxorubicin (natural), Doxorubicin], in the data set with HH9 tumors [1], the tumor growth inhibition was 79%. Besides, the IC50 with B16.F10 was 100 nM; in the data set with H1299, 300 nM; in the data set on HH9, 300 nM; with MCF7R, 200000 nM; with K562 R, 3000 nM. Moreover, the Weight loss is listed as 31* % in data set [2] (Exp. 1: 600 μg in all); 31% in data set [2] (Exp. 1: 600 μg in all, listed as natural doxorubicin); 15% in [2] (Exp. 2: 400 μg in all). For the same molecule, the results for the “Weight of the mice” value in [2] (Exp. 1: 600 μg of doxorubicin or equivalent in all) and in data set [2] (Exp. 2: 400 μg of doxorubicin or equivalent in all) were 16.06 and 26.7, respectively.
On to GRPRESGKKRKRKRLKP [SEQ ID NO: 21], for which the entries for the “Internalization of Peptide-peroxidase” value in the data set with 3T3, in the data set with H1299 cells [7] and with HeLa were 83.7 pg/10^3 cells, 21.9 pg/10^3 cells and 13.2 pg/10^3 cells, respectively. Also, in the data set with H1299 cells [3], the S-PO internalized was 1680 pg/10^4 cells. Besides, the “heparin concentration necessary to inhibit 50% penetration of the peptides coupled to peroxidase” value in the data set on HeLa cells [4] stood at 2.3 µg/mL; with 3T3 cells, 4.1 µg/mL. Moreover, the Kd in data set [5] was found to be 135 nM; in [6], 16 nM; in [8], 12 nM; in data set [9], 110 nM.
As to KHLKKHLKKHLK [SEQ ID NO: 38], the MBC in data set [10], in [11], in data set [12], in data set [13], in data set [15] and in data set [16] was more than 170 µM each time. In addition, the “Weight of the mice” value in [14] came out at 30.
Regarding “Natural lysozyme: lysozyme, a muraminidase, unconjugated”, the “minimal bactericide concentration (MBC), inhibits 75% of the growth” value in [17] is more than 256 µg/mL.
SERKKRRRESRKKRRRES [SEQ ID NO: 26]: in the data set on HH9 tumors [18], the “Inhibition of the growth of the tumors” value came to 10%.

B1: natural RNase A: bovine Ribonuclease A, unconjugated (protein)
chain: KETAAAKFERQHMDSSTSAASSSNYCNQMMKSRNLTKDRCKPVNTFVHESLADVQAVCSQKNVACKNGQTNCYQSYSTMSITDCRETGSSKYPNCAYKTTQANKHIIVACEGNPYVPVHFDASV
With B1, the “Quantity of RNase internalized” value in the data set with HeLa cells [19] was 0 pg/10^4 cells. For the same molecule, in the data set on HH9 cells, the cytotoxic activity entry is reported as “no cytotoxic activity”.
